Data from ChEMBL document CHEMBL1201862, “PubChem BioAssay data set” (2004).
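Dose response: 5 concentrations. Exposure: 48 h. Format: 96-well plates. Endpoint: linear interpolation; highest concentration if not reached. GI50 is the concentration that inhibits growth by half.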 Active and inactive are the calls of the source. No stated cut-off is given here; in the data, active = GI50 up to about 1.1 µM and inactive = higher.

Key:
Experiment in all cases: NCI anticancer screen, dose series, 48 h
ACHN = test system: ACHN
NCI-H23 = test system: NCI-H23
HL-60 = test system: HL-60
Hs-578T = test system: Hs-578T
UO-31 = test system: UO-31
SK-MEL-28 = test system: SK-MEL-28
SK-MEL-5 = test system: SK-MEL-5
DU-145 = test system: DU-145
PC-3 = test system: PC-3
SK-MEL-2 = test system: SK-MEL-2
CAKI-1 = test system: CAKI-1
786-0 = test system: 786-0
HT-29 = test system: HT-29
SN12C = test system: SN12C
OVCAR-3 = test system: OVCAR-3
SW-620 = test system: SW-620
HOP-92 = test system: HOP-92

Measured: GI50

CC1CN=C(N(Cc2ccc(F)cc2)C(=O)Nc2ccc(Cl)cc2)S1 (stereo not given)
inactive: ACHN 6.68 µM | NCI-H23 26.9 µM | HL-60 17.5 µM | Hs-578T 51.3 µM | UO-31 35.2 µM | SK-MEL-28 16.3 µM | SK-MEL-5 13.7 µM | DU-145 61.9 µM | PC-3 23 µM | SK-MEL-2 15.1 µM | CAKI-1 5.32 µM | 786-0 20.5 µM | HT-29 17.8 µM | SN12C 28.2 µM | OVCAR-3 20.2 µM | SW-620 22.5 µM

Cc1ccsc1/C=N/NC1=NCCN1
inactive: ACHN > 100 µM | HOP-92 > 100 µM | NCI-H23 > 100 µM | Hs-578T > 100 µM | UO-31 > 100 µM | SK-MEL-28 > 100 µM | SK-MEL-5 > 100 µM | DU-145 > 100 µM | PC-3 > 100 µM | SK-MEL-2 > 100 µM | CAKI-1 > 100 µM | 786-0 > 100 µM | HT-29 > 100 µM | SN12C > 100 µM | OVCAR-3 > 100 µM | SW-620 > 100 µM

Oc1ccc(/C=C/c2cc(O)cc(O)c2)cc1 [RESVERATROL]
inactive: ACHN 27 µM | HOP-92 > 100 µM | NCI-H23 46 µM | HL-60 20.4 µM | UO-31 35.7 µM | SK-MEL-28 > 100 µM | DU-145 12.1 µM | PC-3 42.4 µM | SK-MEL-2 86.3 µM | CAKI-1 42.2 µM | HT-29 24.3 µM | SN12C 42.8 µM | OVCAR-3 > 100 µM | SW-620 > 100 µM

COC(=O)C1CC(C=[N+](C)C)=C(SC)N1 (stereo not given)
inactive: ACHN > 100 µM | HOP-92 > 100 µM | NCI-H23 > 100 µM | Hs-578T > 100 µM | UO-31 > 100 µM | SK-MEL-28 > 100 µM | SK-MEL-5 > 100 µM | DU-145 > 100 µM | PC-3 > 100 µM | SK-MEL-2 > 100 µM | CAKI-1 > 100 µM | 786-0 > 100 µM | HT-29 > 100 µM | OVCAR-3 > 100 µM | SW-620 > 100 µM

ClC1(Cl)C2CCOC21n1cnc2ccccc21 (stereo not given)
inactive: NCI-H23 45 µM | HL-60 > 100 µM | Hs-578T > 100 µM | UO-31 53.8 µM | SK-MEL-28 > 100 µM | SK-MEL-5 > 100 µM | DU-145 > 100 µM | PC-3 > 100 µM | SK-MEL-2 > 100 µM | CAKI-1 > 100 µM | 786-0 > 100 µM | HT-29 > 100 µM | SN12C > 100 µM | OVCAR-3 > 100 µM | SW-620 7.21 µM

NC(Cc1ccccc1)C(=O)N[C@H]1c2ccsc2/C(=N/O)[C@H]1O (stereo not given in full)
inactive: HOP-92 > 100 µM | NCI-H23 > 100 µM | HL-60 > 100 µM | UO-31 25.6 µM | SK-MEL-28 > 100 µM | SK-MEL-5 > 100 µM | DU-145 > 100 µM | PC-3 > 100 µM | SK-MEL-2 > 100 µM | CAKI-1 > 100 µM | HT-29 > 100 µM | SN12C > 100 µM | OVCAR-3 > 100 µM | SW-620 > 100 µM

CNNC1=NS(=O)(=O)c2cc(C(=O)OC)c(Cl)cc2S1
active: UO-31 0.001 µM
inactive: ACHN > 10 µM | NCI-H23 > 10 µM | HL-60 > 10 µM | Hs-578T > 10 µM | SK-MEL-28 > 10 µM | SK-MEL-5 > 10 µM | DU-145 > 10 µM | PC-3 > 10 µM | SK-MEL-2 > 10 µM | CAKI-1 > 10 µM | 786-0 > 10 µM | HT-29 > 10 µM | SN12C > 10 µM | OVCAR-3 > 10 µM | SW-620 > 10 µM

O=c1[nH]c(=O)n(C2OC(CO)C(O)C2O)cc1OCCCc1ccccc1 (stereo not given)
inactive: ACHN > 100 µM | NCI-H23 > 100 µM | HL-60 > 100 µM | Hs-578T > 100 µM | SK-MEL-28 > 100 µM | SK-MEL-5 > 100 µM | DU-145 > 100 µM | PC-3 > 100 µM | SK-MEL-2 > 100 µM | CAKI-1 > 100 µM | 786-0 > 100 µM | HT-29 > 100 µM | SN12C > 100 µM | OVCAR-3 > 100 µM | SW-620 > 100 µM

O=P(Oc1ccc(Cl)cc1)(Oc1ccc(Cl)cc1)N1CC1
inactive: ACHN > 10 µM | NCI-H23 > 10 µM | HL-60 > 10 µM | Hs-578T > 10 µM | UO-31 > 10 µM | SK-MEL-28 > 10 µM | SK-MEL-5 > 10 µM | DU-145 > 10 µM | PC-3 > 10 µM | SK-MEL-2 > 10 µM | 786-0 > 10 µM | HT-29 > 10 µM | SN12C > 10 µM | OVCAR-3 > 10 µM | SW-620 > 10 µM

O=C(OCC(OC(=O)c1ccccc1)C(OC(=O)c1ccccc1)C(OC(=O)c1ccccc1)c1cnn(-c2ccccc2)n1)c1ccccc1 (stereo not given)
inactive: ACHN > 100 µM | HOP-92 > 100 µM | NCI-H23 > 100 µM | HL-60 > 100 µM | Hs-578T > 100 µM | UO-31 > 100 µM | SK-MEL-28 > 100 µM | SK-MEL-5 > 100 µM | DU-145 > 100 µM | CAKI-1 > 100 µM | 786-0 > 100 µM | HT-29 > 100 µM | SN12C > 100 µM | OVCAR-3 > 100 µM | SW-620 > 100 µM

N#Cc1ccc(C2NN=CC23C(=O)c2ccccc2OC3c2ccccc2)cc1 (stereo not given)
inactive: ACHN 34.7 µM | NCI-H23 30.1 µM | HL-60 59.7 µM | Hs-578T 30.5 µM | UO-31 19.2 µM | SK-MEL-28 51.1 µM | SK-MEL-5 23.7 µM | DU-145 47.1 µM | PC-3 29.7 µM | SK-MEL-2 29.5 µM | CAKI-1 34 µM | 786-0 32.1 µM | HT-29 31.7 µM | SN12C 41.1 µM | OVCAR-3 30.4 µM | SW-620 45.2 µM

COc1ccc(C(=O)NCCC2CN(S(=O)(=O)C(F)(F)F)c3ccccc32)c(OC)c1 (stereo not given)
inactive: ACHN 33.2 µM | HOP-92 61.4 µM | NCI-H23 32.8 µM | Hs-578T 33.1 µM | UO-31 43 µM | SK-MEL-28 51.2 µM | SK-MEL-5 15.2 µM | DU-145 > 100 µM | PC-3 36 µM | SK-MEL-2 53.6 µM | CAKI-1 > 100 µM | 786-0 53 µM | HT-29 22.7 µM | OVCAR-3 51.4 µM | SW-620 35.8 µM

COC(CNC(=O)C(C)NC(=O)C(C)NC(=O)c1ccccc1)OC (stereo not given)
inactive: ACHN > 100 µM | HOP-92 > 100 µM | NCI-H23 > 100 µM | Hs-578T > 100 µM | SK-MEL-5 > 100 µM | DU-145 > 100 µM | PC-3 > 100 µM | SK-MEL-2 > 100 µM | CAKI-1 > 100 µM | 786-0 > 100 µM | HT-29 > 100 µM | SN12C > 100 µM | SW-620 > 100 µM

S=c1sc2c(s1)SCCCCSCCCCSc1sc(=S)sc1SCCCCSCCCCS2
inactive: ACHN > 100 µM | NCI-H23 > 100 µM | HL-60 > 100 µM | Hs-578T 30.2 µM | UO-31 > 100 µM | SK-MEL-28 > 100 µM | SK-MEL-5 > 100 µM | DU-145 > 100 µM | PC-3 > 100 µM | SK-MEL-2 > 100 µM | CAKI-1 > 100 µM | 786-0 68.5 µM | HT-29 > 100 µM | SN12C > 100 µM | OVCAR-3 > 100 µM | SW-620 > 100 µM

CC(C)CC1C(=O)OC(C)(C)OC1=O
inactive: ACHN > 100 µM | NCI-H23 > 100 µM | Hs-578T > 100 µM | UO-31 > 100 µM | SK-MEL-28 > 100 µM | SK-MEL-5 > 100 µM | DU-145 > 100 µM | PC-3 > 100 µM | SK-MEL-2 > 100 µM | CAKI-1 > 100 µM | 786-0 > 100 µM | HT-29 > 100 µM | SN12C > 100 µM | OVCAR-3 > 100 µM | SW-620 > 100 µM

C=C(C)[C@@H]1CC[C@@H](C)[C@](O)([C@@H]2C[C@@H]([C@H](COC(=O)c3ccccc3)OC(=O)c3ccccc3)OC2=O)C1
inactive: ACHN > 100 µM | NCI-H23 > 100 µM | UO-31 29 µM | SK-MEL-28 > 100 µM | SK-MEL-5 > 100 µM | DU-145 > 100 µM | PC-3 46.1 µM | SK-MEL-2 > 100 µM | CAKI-1 > 100 µM | 786-0 > 100 µM | HT-29 > 100 µM | SN12C > 100 µM | OVCAR-3 > 100 µM | SW-620 > 100 µM

CCCCc1ccc(Nc2cc(=O)n(C)c(=O)[nH]2)cc1
inactive: ACHN > 100 µM | HOP-92 26.7 µM | NCI-H23 > 100 µM | Hs-578T > 100 µM | UO-31 > 100 µM | SK-MEL-28 > 100 µM | SK-MEL-5 > 100 µM | PC-3 91.2 µM | SK-MEL-2 > 100 µM | CAKI-1 > 100 µM | 786-0 > 100 µM | HT-29 > 100 µM | SN12C > 100 µM | OVCAR-3 > 100 µM | SW-620 > 100 µM

COC(=O)C(/C(=N\O)C(=O)Nc1cccc(Cl)c1C)c1cnc2ccccc2n1 (stereo not given)
inactive: ACHN > 100 µM | HOP-92 > 100 µM | NCI-H23 > 100 µM | UO-31 > 100 µM | SK-MEL-28 > 100 µM | SK-MEL-5 > 100 µM | DU-145 > 100 µM | PC-3 > 100 µM | SK-MEL-2 > 100 µM | CAKI-1 > 100 µM | 786-0 > 100 µM | HT-29 > 100 µM | SN12C > 100 µM | OVCAR-3 > 100 µM | SW-620 > 100 µM
